Measurements taken from patent US9783505B2, “Substituted diaminopyrimidyl compounds, compositions thereof, and methods of treatment therewith” (Signal Pharmaceuticals, LLC, priority 2013, dated 2017).
Like-named read-outs stand apart in the source and are kept apart here.

Legend:
[1] = biological target: T1, His-PKC-theta (Homo sapiens, UniProt Q04759); experiment: PKC-theta Assay (384-well time resolved fluorescence, IMAP TR-FRET); assay type: biochemical; settings: read-out: Act. Level (IC50 in the PKC-theta Assay)
T1 construct: His; purchased Invitrogen
Procedure, shortened: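 Enzyme at 142 pM phosphorylated 200 nM Fam-S6 peptide with 10 μM ATP in 50 mM HEPES pH 7.6, 10 mM MgCl2, 1 mM DTT for 2 h at room temperature. Product was detected after overnight incubation with IMAP binding reagent and Tb donor by time-resolved FRET.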

[2] = biological target: T2, PKC delta (Homo sapiens, UniProt Q05655); experiment: PKC delta Assay (384-well time resolved fluorescence, IMAP TR-FRET); assay type: biochemical; settings: selectivity for PKC-theta over PKC-delta
T2 construct: purchased Invitrogen
Description: PKC delta Assay. A 384-well time resolved fluorescence assay was used to monitor PKC delta activity. The PKC delta assay was run in the following assay buffer: 50 mM HEPES pH 7.6, 10 mM MgCl2, 1 mM DTT, 0.01% Triton X-100, 0.01% BSA and 0.1 mM EDTA. To initiate the reaction, 200 nM of Fam-labeled S6-derived peptide (Molecular Devices) and 10 μM of ATP were mixed with 1.5 nM of PKC delta (Invitrogen), for a total assay volume of 25 μL in each well. The assay was incubated at room temperature for 2 hours and terminated using a 60 μL/well mixture of Detection Binding Solution: 70% IMAP Progressive Binding Buffer A, 30% IMAP Progressive Binding Buffer B, 1:600 Progressive Binding Reagent, and 1:400 TR-FRET Tb Donor (Molecular Devices). The assay plates were then incubated overnight at room temperature and read on the Perkin-Elmer Envision Reader.

T1 sequence (Q04759 whole entry): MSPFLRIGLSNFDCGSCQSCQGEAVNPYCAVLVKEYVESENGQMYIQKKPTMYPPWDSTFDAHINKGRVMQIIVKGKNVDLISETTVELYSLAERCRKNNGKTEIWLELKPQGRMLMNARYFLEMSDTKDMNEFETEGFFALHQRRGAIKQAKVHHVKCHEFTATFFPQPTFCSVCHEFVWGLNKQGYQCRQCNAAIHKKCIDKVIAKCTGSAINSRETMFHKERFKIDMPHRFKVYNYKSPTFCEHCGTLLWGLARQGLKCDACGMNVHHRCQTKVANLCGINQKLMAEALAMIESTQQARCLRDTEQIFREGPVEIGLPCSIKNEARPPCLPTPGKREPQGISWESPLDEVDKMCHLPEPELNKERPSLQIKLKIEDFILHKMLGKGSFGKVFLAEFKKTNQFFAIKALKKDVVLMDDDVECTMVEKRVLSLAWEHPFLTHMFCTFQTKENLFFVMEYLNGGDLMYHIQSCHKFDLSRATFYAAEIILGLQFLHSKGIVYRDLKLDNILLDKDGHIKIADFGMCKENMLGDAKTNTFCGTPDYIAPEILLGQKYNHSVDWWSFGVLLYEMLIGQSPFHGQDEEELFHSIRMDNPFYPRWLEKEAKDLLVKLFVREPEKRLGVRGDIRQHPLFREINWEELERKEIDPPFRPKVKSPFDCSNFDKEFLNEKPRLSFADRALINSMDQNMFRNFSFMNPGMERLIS
T2 sequence (Q05655 whole entry): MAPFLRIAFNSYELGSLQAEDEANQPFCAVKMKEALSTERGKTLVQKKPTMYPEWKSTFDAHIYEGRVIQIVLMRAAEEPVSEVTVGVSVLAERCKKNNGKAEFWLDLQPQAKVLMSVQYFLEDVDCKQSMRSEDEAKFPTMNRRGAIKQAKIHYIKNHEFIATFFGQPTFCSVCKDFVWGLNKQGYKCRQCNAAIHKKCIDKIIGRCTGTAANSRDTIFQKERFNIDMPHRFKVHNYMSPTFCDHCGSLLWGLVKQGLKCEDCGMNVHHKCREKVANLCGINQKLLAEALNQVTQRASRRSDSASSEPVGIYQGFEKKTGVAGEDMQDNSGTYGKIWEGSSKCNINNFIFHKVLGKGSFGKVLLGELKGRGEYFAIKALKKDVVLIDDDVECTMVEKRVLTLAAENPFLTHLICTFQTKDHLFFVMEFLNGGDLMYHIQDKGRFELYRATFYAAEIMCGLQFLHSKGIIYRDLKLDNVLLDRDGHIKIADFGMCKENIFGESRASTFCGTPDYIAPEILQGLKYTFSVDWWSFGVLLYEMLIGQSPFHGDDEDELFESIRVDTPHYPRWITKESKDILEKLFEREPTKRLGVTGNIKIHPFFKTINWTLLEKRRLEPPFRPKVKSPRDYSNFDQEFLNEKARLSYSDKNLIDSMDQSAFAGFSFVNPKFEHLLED

SMILES | IC50 [1] | IC50 ([1]; Table 2) | Sel. Level (ratio of IC50 PKC-delta/IC50 PKC-theta) [2]
Cc1ccc(CCNc2ncc(C#N)c(N[C@@H]3CC[C@H](O)C(C)(C)C3)n2)cn1 [Cmpd 197] | 800 to 2000 nM | – | –
Cc1cc(C)n(CCNc2ncc(C#N)c(N[C@@H]3CC[C@H](O)C(C)(C)C3)n2)n1 [Cmpd 198] | 2000 to 10000 nM | – | –
N#Cc1cnc(NCCc2cccc(F)c2)nc1N[C@H]1CC[C@@H](O)CC1 [Cmpd 198] | – | 100 to 800 nM | –
COCc1noc(CCNc2ncc(C#N)c(N[C@@H]3CC[C@H](O)C(C)(C)C3)n2)n1 [Cmpd 199] | 2000 to 10000 nM | – | H (selectivity level of 5-fold or less (selectivity level H))
CC1(C)C[C@H](Nc2nc(NCCc3cc4ccccc4[nH]3)ncc2C#N)CC[C@@H]1O [Cmpd 200] | 800 to 2000 nM | – | G (selectivity between 5- and 20-fold (selectivity level G))
CC1(C)C[C@H](Nc2nc(NCCn3cccc3)ncc2C#N)CC[C@@H]1O [Cmpd 201] | 100 to 800 nM | – | F (selectivity of between 20- and 100-fold (selectivity level F))
CC1(C)C[C@H](Nc2nc(NCCn3ccc4ccccc43)ncc2C#N)CC[C@@H]1O [Cmpd 202] | 2000 to 10000 nM | – | H (selectivity level of 5-fold or less (selectivity level H))
CC1(C)C[C@H](Nc2nc(NCCc3c[nH]c4ccccc34)ncc2C#N)CC[C@@H]1O [Cmpd 203] | < 100 nM | – | F (selectivity of between 20- and 100-fold (selectivity level F))
CC1(C)C[C@H](Nc2nc(NCCc3c[nH]c4ncccc34)ncc2C#N)CC[C@@H]1O [Cmpd 204] | 100 to 800 nM | – | F (selectivity of between 20- and 100-fold (selectivity level F))
CC1(C)C[C@H](Nc2nc(NCCc3nc4ccccc4o3)ncc2C#N)CC[C@@H]1O [Cmpd 205] | 2000 to 10000 nM | – | H (selectivity level of 5-fold or less (selectivity level H))
Cc1cc2ccccc2n1CCNc1ncc(C#N)c(N[C@@H]2CC[C@H](O)C(C)(C)C2)n1 [Cmpd 206] | 100 to 800 nM | – | F (selectivity of between 20- and 100-fold (selectivity level F))
Cc1nc2ccccc2n1CCNc1ncc(C#N)c(N[C@@H]2CC[C@H](O)C(C)(C)C2)n1 [Cmpd 207] | 2000 to 10000 nM | – | H (selectivity level of 5-fold or less (selectivity level H))
CC1(C)C[C@H](Nc2nc(NCCc3cn[nH]c3)ncc2C#N)CC[C@@H]1O [Cmpd 208] | 100 to 800 nM | – | G (selectivity between 5- and 20-fold (selectivity level G))
CC1(C)C[C@H](Nc2nc(NCCn3ccc(-c4ccccc4)n3)ncc2C#N)CC[C@@H]1O [Cmpd 209] | 2000 to 10000 nM | – | H (selectivity level of 5-fold or less (selectivity level H))
Cc1cc(C(F)(F)F)nn1CCNc1ncc(C#N)c(N[C@@H]2CC[C@H](O)C(C)(C)C2)n1 [Cmpd 210] | 800 to 2000 nM | – | G (selectivity between 5- and 20-fold (selectivity level G))
CC1(C)C[C@H](Nc2nc(NCCn3cccn3)ncc2C#N)CC[C@@H]1O [Cmpd 211] | 2000 to 10000 nM | – | H (selectivity level of 5-fold or less (selectivity level H))
Cc1cnn(CCNc2ncc(C#N)c(N[C@@H]3CC[C@H](O)C(C)(C)C3)n2)c1 [Cmpd 212] | 2000 to 10000 nM | – | H (selectivity level of 5-fold or less (selectivity level H))
CC1(C)C[C@H](Nc2nc(NCCn3cc(C#N)cn3)ncc2C#N)CC[C@@H]1O [Cmpd 213] | 2000 to 10000 nM | – | H (selectivity level of 5-fold or less (selectivity level H))
Cc1cccnc1CCNc1ncc(C#N)c(N[C@@H]2CC[C@H](O)C(C)(C)C2)n1 [Cmpd 214] | 2000 to 10000 nM | – | H (selectivity level of 5-fold or less (selectivity level H))
COc1cccc(CCNc2ncc(C#N)c(N[C@@H]3CC[C@H](O)C(C)(C)C3)n2)n1 [Cmpd 215] | 800 to 2000 nM | – | G (selectivity between 5- and 20-fold (selectivity level G))
CC1(C)C[C@H](Nc2nc(NCCc3ccn[nH]3)ncc2C#N)CC[C@@H]1O [Cmpd 216] | 800 to 2000 nM | – | G (selectivity between 5- and 20-fold (selectivity level G))

The next lines start with results.

IC50 [1] | IC50 ([1]; Table 2) | SMILES | Sel. Level (ratio of IC50 PKC-delta/IC50 PKC-theta) [2]
100 to 800 nM | – | CC1(C)C[C@H](Nc2nc(NCCc3cccc4cc[nH]c34)ncc2C#N)CCC1O (stereo partly drawn) [Cmpd 217] | G (selectivity between 5- and 20-fold (selectivity level G))
2000 to 10000 nM | – | CC1(C)C[C@H](Nc2nc(NCCc3cnc(C4CC4)nc3)ncc2C#N)CC[C@@H]1O [Cmpd 218] | H (selectivity level of 5-fold or less (selectivity level H))
800 to 2000 nM | – | CC1(C)C[C@H](Nc2nc(NCCc3noc(C(F)(F)F)n3)ncc2C#N)CC[C@@H]1O [Cmpd 219] | G (selectivity between 5- and 20-fold (selectivity level G))
800 to 2000 nM | – | CC1(C)C[C@H](Nc2nc(NCCc3ccon3)ncc2C#N)CC[C@@H]1O [Cmpd 220] | G (selectivity between 5- and 20-fold (selectivity level G))
2000 to 10000 nM | – | CC1(C)C[C@H](Nc2nc(NCCn3ccnc3)ncc2C#N)CC[C@@H]1O [Cmpd 221] | H (selectivity level of 5-fold or less (selectivity level H))
800 to 2000 nM | – | CC1(C)C[C@H](Nc2nc(NCCc3cnoc3)ncc2C#N)CC[C@@H]1O [Cmpd 222] | G (selectivity between 5- and 20-fold (selectivity level G))
2000 to 10000 nM | – | CC1(C)C[C@H](Nc2nc(NCCn3cncn3)ncc2C#N)CC[C@@H]1O [Cmpd 223] | H (selectivity level of 5-fold or less (selectivity level H))
2000 to 10000 nM | – | Cc1cccnc1CCNc1ncc(C#N)c(NC2C[C@H](O)C2(C)C)n1 (stereo partly drawn) [Cmpd 224] | H (selectivity level of 5-fold or less (selectivity level H))
2000 to 10000 nM | – | Cc1cc(C(F)(F)F)nn1CCNc1ncc(C#N)c(N[C@@H]2CC(O)C2(C)C)n1 (stereo partly drawn) [Cmpd 225] | H (selectivity level of 5-fold or less (selectivity level H))
2000 to 10000 nM | – | CC1(C)C(O)C[C@H]1Nc1nc(NCCc2cnccn2)ncc1C#N (stereo partly drawn) [Cmpd 226] | H (selectivity level of 5-fold or less (selectivity level H))
800 to 2000 nM | – | COc1cccc(CCNc2ncc(C#N)c(N[C@@H]3CC(O)C3(C)C)n2)n1 (stereo partly drawn) [Cmpd 227] | G (selectivity between 5- and 20-fold (selectivity level G))
800 to 2000 nM | – | CC1(C)[C@@H](O)C[C@H]1Nc1nc(NCCc2ccon2)ncc1C#N [Cmpd 228] | G (selectivity between 5- and 20-fold (selectivity level G))
800 to 2000 nM | – | CC1(C)[C@@H](O)C[C@H]1Nc1nc(NCCc2cccc3cc[nH]c23)ncc1C#N [Cmpd 229] | G (selectivity between 5- and 20-fold (selectivity level G))
2000 to 10000 nM | – | CC1(C)[C@@H](O)C[C@H]1Nc1nc(NCCc2ncon2)ncc1C#N [Cmpd 230] | H (selectivity level of 5-fold or less (selectivity level H))
800 to 2000 nM | – | CC1(C)C(O)C[C@H]1Nc1nc(NCCc2cccnc2)ncc1C#N (stereo partly drawn) [Cmpd 231] | G (selectivity between 5- and 20-fold (selectivity level G))
100 to 800 nM | – | Cc1ccc(CCNc2ncc(C#N)c(N[C@@H]3CC(O)C3(C)C)n2)o1 (stereo partly drawn) [Cmpd 232] | F (selectivity of between 20- and 100-fold (selectivity level F))
2000 to 10000 nM | – | Cc1nc(CCNc2ncc(C#N)c(N[C@@H]3CC(O)C3(C)C)n2)no1 (stereo partly drawn) [Cmpd 233] | H (selectivity level of 5-fold or less (selectivity level H))
800 to 2000 nM | – | CC1(C)[C@@H](O)C[C@H]1Nc1nc(NCCc2ccco2)ncc1C#N [Cmpd 234] | G (selectivity between 5- and 20-fold (selectivity level G))
2000 to 10000 nM | – | Cc1ccc(CCNc2ncc(C#N)c(N[C@@H]3C[C@H](O)C3(C)C)n2)cn1 [Cmpd 235] | H (selectivity level of 5-fold or less (selectivity level H))
2000 to 10000 nM | – | COCc1noc(CCNc2ncc(C#N)c(N[C@@H]3CC(O)C3(C)C)n2)n1 (stereo partly drawn) [Cmpd 236] | H (selectivity level of 5-fold or less (selectivity level H))
800 to 2000 nM | – | CC1(C)[C@@H](O)C[C@H]1Nc1nc(NCCc2cc3ccccc3[nH]2)ncc1C#N [Cmpd 237] | G (selectivity between 5- and 20-fold (selectivity level G))
< 100 nM | – | CC1(C)C[C@H](Nc2nc(NCCC3C(=O)Nc4ccccc43)ncc2C#N)CC[C@@H]1O (stereo partly drawn) [Cmpd 247] | –
< 100 nM | – | CCc1ccc2c(c1)C(CCNc1ncc(C#N)c(N[C@@H]3C[C@H](O)C3(C)C)n1)C(=O)N2 (stereo partly drawn) [Cmpd 261] | –
2000 to 10000 nM | – | CC1(C)C[C@H](Nc2nc(NCCn3c(=O)[nH]c4ccccc43)ncc2C#N)CC[C@@H]1O [Cmpd 293] | –
